Data from US6013626A (priority 1995, dated 2000).
Where “and” joins values, the source holds several entries; their conditions need not be identical. Equal entries are not always repeated. Entries after “also recorded” stand apart in the source; their conditions may differ. Where two headings read alike, the source gives them in different places.

Experiments:
[1] = test system: Colon 38 (colon adenocarcinoma #38)
Method: (§1) Gross log kill is defined as T-C/3.2 Td where T is the median time in days for the tumors of the treated group to reach 750 mg, C is the median time in days for the tumors of the control group to reach 750 mg, and Td is the tumor volume doubling time.

[2] = test system: Mam 16/Taxol (taxol-resistant mammary #16/C/RP); test: In vivo activity, SC Mam 16/Taxol tumor; parameters: species or system mice; details: Exp 1733, 5 inj. IV, total dose 16.5 mg/kg
Method: as §1

Human Sm Cell L. DMS273 = test: In vivo activity, SC DMS273 tumor; details: Exp 1596; SC Human Sm Cell L. DMS273 SCID; 6 inj. IV; total dose 7.3 mg/kg
Method: as §1

Toxicity in mice = type: in vivo; details: for cause of lethal toxicity observed during testing: in vivo testing
Mam 16/C = test: In vivo activity, SC Mam 16/C tumor; parameters: species or system mice
Method: as §1

[3] = test system: murine leukemia (L1210 or P388), murine solid tumor, human solid tumor and low malignancy fibroblast (LML)
[4] = test system: murine and human tumors implanted in mice; details: G. Trimurtulu et al. 1994; R. Barrow et al. 1995; cited from earlier work
H125 Human Adenosq-lung = type: in vivo, SCID mice; details: Exp 1823; SC H125 Human Adenosq-lung; 8 inj. IV; total dose 14.4 mg/kg
Method: as §1

[5] = test system: murine and human tumors implanted in mice; type: in vivo; details: for tumor burden T/C values: summary: Cryptophycin 1 in five early stage murine and two early stage human tumors, Cryptophycin 8 in all tumors tested to date; for in vivo antitumor activity: tumors implanted in mice
Method: as §1

M17/0 (Adr. Sens.) = test: In vivo activity, SC M17/0 tumor; parameters: species or system mice; details: Exp 1833; SC M17/0 (Adr. Sens.); 5 inj. IV; total dose 5.4 mg/kg
Method: as §1

[6] = test system: Colon 51 (colon adenocarcinoma #51); test: In vivo activity, SC Colon 51 tumor; parameters: species or system mice
Method: as §1

microtubule assembly = details: C. D. Smith et al. 1994; compared with vinblastine; cited from earlier work
LNCaP Human Prostate = test: In vivo activity, SC LNCaP tumor; parameters: species or system mice; details: Exp 1841, 6 inj. IV, total dose 6.5 mg/kg
Method: as §1

MX-1 Human Breast = test: In vivo activity, SC MX-1 tumor; parameters: species or system SCID mice; details: Exp 1806; SC MX-1 Human Breast; 8 inj. IV; total dose 12 mg/kg
Method: as §1

[7] = test system: fungi, especially strains of Cryptococcus; details: R. E. Schwartz et al. 1990; cited from earlier work
[8] = test system: human tumor cell lines such as KB and LoVo; test: Cytotoxicity against human tumor cell lines such as KB and LoVo; type: cell-based
[9] = test system: Panc 03 (pancreatic ductal adenocarcinoma #03); details: for Log Kill: 9 inj. IV
Method: as §1

[10] = Solvolysis (methanolysis) of the C-D ester bond; type: physicochemical; details: methanol used in isolation scheme
colon adenocarcinoma #33 = test: In vivo activity, early stage colon adenocarcinoma #33; parameters: species or system mice; details: 8.1 mg/kg
Method: Gross log kill is defined as T-C/3.2 Td where T is the median time in days for the tumors of the treated group to reach 750 mg, C is the median time in days for the tumors of the control group to reach 750 mg, and Td is the tumor volume doubling time (T. H. Corbett et al., Cytotoxic Anticancer Drugs: Models and Concepts for Drug Discovery and Development, pp 35-87; Kluwer: Norwell, 1992).

[11] = test system: tumor (leukemia) and normal cell (CFUGM) lines; type: cell-based; details: μg/disk per compound where printed
[12] = test system: A-10 rat aortic smooth muscle cells; type: cell-based
Method: A-10 cells were grown to near-confluency on glass coverslips in BME/10% FBS. Compounds in PBS were added to the indicated final concentrations and cells were incubated for an additional 24 hours. For the staining of microtubules and intermediate filaments, the cells were fixed with cold methanol and incubated with PBS containing 10% calf serum to block nonspecific binding sites. Cells were then incubated at 37° C. for 60 min with either monoclonal anti-β-tubulin or with monoclonal anti-vimentin at dilutions recommended by the manufacturer. Bound primary antibodies were subsequently visualized by a 45-minute incubation with fluorescein-conjugated rabbit antimouse IgG. The coverslips were mounted on microscope slides and the fluorescence patterns were examined and photographed using a Zeiss Photomicroscope I11 equipped with epifluoroescence optics for fluorescein. […] PBS containing 100 nM TRITC-phalloidin was then added and the mixture was allowed to incubate for 45 min at 37° C. The cells were washed rapidly three times with PBS before the coverslips were mounted and immediately photographed as described above.
After 24 hours, microtubules and vimentin intermediate filaments were visualized by indirect immunofluorescence and microfilaments were stained using TRITC-phalloidin. The morphological effects of each drug were examined.
After 24 hours, microtubule organization was examined by immunofluorescence as described above.
The cells were then washed and incubated in drug-free medium for periods of 1 hour or 24 hours.

SKOV3 cells = test: Reversibility of inhibition of SKOV3 cell proliferation; type: cell-based, human; details: SKOV3 cells treated 24 hours with IC50 dose, then drug-free medium
Method: After 24 hours the cells were washed and incubated in drug-free medium for the time indicated. The cell density was determined by sulforhodamine B (SRB) staining as described in the Experimental Section, and is expressed as the mean ± sd adsorbance at 560 nm for triplicate samples in one of three experiments.

[13] = μg/disk differs per compound (0.2-250 μg/disk)
[14] = Exp 1769, SC C38, 15 inj. IV, 45 mg/kg TD
[15] = pancreatic ductal adenocarcinoma #03, 8.1 mg/kg

COc1ccc(C[C@H]2NC(=O)/C=C/C[C@@H]([C@H](C)[C@H]3O[C@@H]3c3ccccc3)OC(=O)[C@H](CC(C)C)OC(=O)[C@H](C)CNC2=O)cc1Cl [Cryptophycin 1]
% Body Wt. Loss at Nadir ([1]; Exp 1560, SC Colon 38, 8 inj. IV, total dose 10.3 mg/kg): Gain
Cures [2]: 0/4
% Body Wt. Loss at Nadir (Human Sm Cell L. DMS273): 0%
Cures (Human Sm Cell L. DMS273): 0/5
Log Kill (Human Sm Cell L. DMS273): < 1
cause of lethal toxicity observed during testing (Toxicity in mice): attributed to leucopenia
Cures (Mam 16/C; Exp 1720, 5 inj. IV, total dose 13.2 mg/kg): 0/5
Corbett Assay, Differential in Zone Units [3]: > 400
Corbett Assay, Type of Cytotoxicity [3, 13]: E/T
activity against subcutaneously transplanted solid tumors in mice [4]: very active against subcutaneously transplanted solid tumors in mice
Cures (H125 Human Adenosq-lung): 0/5
Log Kill (H125 Human Adenosq-lung): 1.1
log kill values, range over trials ([5]; summary b714): <1 to 2
tumor burden T/C values [5]: less than 10%
in vivo antitumor activity [5]: shows antitumor activity; also recorded: very promising activity
Cures (M17/0 (Adr. Sens.)): 0/5
Cures ([6]; Exp 1636, 7 inj. IV, total dose 28.1 mg/kg): 0/5
inhibition of microtubule assembly (microtubule assembly): irreversibly inhibiting mircotubule assembly
Cures (LNCaP Human Prostate): 0/5
Log Kill (LNCaP Human Prostate): < 1
Cures (MX-1 Human Breast): 0/5
Log Kill (MX-1 Human Breast): 2.0
antifungal activity [7]: very active against fungi, especially strains of Cryptococcus

COc1ccc(C[C@H]2NC(=O)/C=C/C[C@@H]([C@H](C)[C@H]3O[C@@H]3c3ccccc3)OC(=O)[C@H](CC(C)C)OC(=O)[C@H](C)CNC2=O)cc1 [Cryptophycin 2]
Corbett Assay, Differential in Zone Units [3, 13]: > 400 zone units
Corbett Assay, Type of Cytotoxicity [3, 13]: E/T

COc1ccc(C[C@H]2NC(=O)/C=C/C[C@@H]([C@H](C)/C=C/c3ccccc3)OC(=O)[C@H](CC(C)C)OC(=O)[C@H](C)CNC2=O)cc1Cl [Cryptophycin 3]
Corbett Assay, Differential in Zone Units [3]: > 400
Corbett Assay, Type of Cytotoxicity [3, 13]: E/T
IC50's [8]: 2 to 4 ng/mL

COc1ccc(C[C@H]2NC(=O)/C=C/C[C@@H]([C@H](C)/C=C/c3ccccc3)OC(=O)[C@H](CC(C)C)OC(=O)[C@H](C)CNC2=O)cc1 [Cryptophycin 4]
Corbett Assay, Differential in Zone Units [3, 13]: > 400 zone units
Corbett Assay, Type of Cytotoxicity [3, 13]: E/T

COc1ccc(C[C@H]2NC(=O)/C=C/C[C@@H]([C@H](C)[C@@H](O)[C@@H](Cl)c3ccccc3)OC(=O)[C@H](CC(C)C)OC(=O)[C@H](C)CNC2=O)cc1Cl [Cryptophycin 8]
Log Kill [1, 14]: None
T/C [1, 14]: > 100%
% Body Wt. Loss at Nadir ([1]; Exp 1887B, SC C38, 6 inj. IV, 30 mg/kg TD): -2%
Cures ([9]; Exp 1825, SC P03, 11 inj. IV, 106 mg/kg TD): 0/5
cause of lethal toxicity observed during testing (Toxicity in mice): attributed to leucopenia
Cures (Mam 16/C; Exp 1885, 7 inj. IV, 21.3 mg/kg TD): 0/5
Corbett Assay, Differential in Zone Units [3]: > 500
Corbett Assay, Type of Cytotoxicity [3, 13]: E/T
Cures ([5]; summary b279): some cures
gross log kill activity ratings ([5]; summary b279): +++ to ++++
tumor burden T/C values [5]: < 10%
Cures ([6]; Exp 1900, 9 inj. IV, 67.5 mg/kg TD): 0/5

CC(C)C[C@@H]1OC(=O)[C@H](C)CNC(=O)[C@@H](Cc2ccc(O)c(Cl)c2)NC(=O)/C=C/C[C@@H]([C@H](C)[C@H]2O[C@@H]2c2ccccc2)OC1=O [Cryptophycin 16]
Log Kill ([9]; Exp 1878, SC P03, 82 mg/kg TD): None

COc1ccc(C[C@H]2NC(=O)/C=C/C[C@@H]([C@H](C)[C@H]3O[C@@H]3c3ccccc3)OC(=O)[C@H](CC(C)C)OC(=O)CCNC2=O)cc1Cl [Cryptophycin 21]
Log Kill ([9]; Exp 1813, SC P03, 27 mg/kg TD): None
susceptibility to methanolysis [10]: much more susceptible to methanolysis than Cryptophycin 1
in vivo antitumor activity [5]: inactive

COc1ccc(CC2NC(=O)CCCC(C(C)C3OC3c3ccccc3)OC(=O)C(CC(C)C)OC(=O)C(C)CNC2=O)cc1Cl (stereo not shown) [Cryptophycin 35]
in vivo antitumor activity [5]: Good in vivo activity

COc1ccc(C[C@H]2NC(=O)/C=C/C[C@@H]([C@H](C)/C=C/c3ccccc3)OC(=O)[C@H](CC(C)C)OC(=O)C(C)(C)CNC2=O)cc1Cl [Cryptophycin 51]
IC50's [8]: 2 to 4 ng/mL

COc1ccc(C[C@H]2NC(=O)/C=C/C[C@@H]([C@H](C)[C@H]3O[C@@H]3c3ccccc3)OC(=O)[C@H](CC(C)C)OC(=O)C(C)(C)CNC2=O)cc1Cl [Cryptophycin 52]
gross (tumor cell) log kill [9, 15]: < 2
tumor burden T/C [9, 15]: 16%
acute and chronic toxicities (Toxicity in mice; in mice): greater than Cryptophycin 1
gross (tumor cell) log kill (colon adenocarcinoma #33): < 2
tumor burden T/C (colon adenocarcinoma #33): 4%
IC50's [8]: 0.025 to 0.05 ng/mL
in vivo antitumor activity [5]: antitumor activity is seen at sublethal levels; also recorded: comparable in vivo activity to Cryptophycin 1

CC(=O)O[C@H]1C(=O)[C@@]2(C)[C@H]([C@H](OC(=O)c3ccccc3)[C@]3(O)C[C@H](OC(=O)[C@H](O)[C@@H](NC(=O)c4ccccc4)c4ccccc4)C(C)=C1C3(C)C)[C@]1(OC(C)=O)CO[C@@H]1C[C@@H]2O [Taxol, taxol, reference compound]
Corbett Assay, Differential in Zone Units [3, 13]: ≥ 400 zone units
Corbett Assay, Type of Cytotoxicity [3, 13]: M/H/T

COc1cc([C@@H]2c3cc4c(cc3[C@@H](O[C@@H]3O[C@@H]5CO[C@@H](C)O[C@H]5[C@H](O)[C@H]3O)[C@H]3COC(=O)[C@H]23)OCO4)cc(OC)c1O [VP-16, etoposide, reference compound]
Corbett Assay, Differential in Zone Units [3, 13]: 350 zone units and 530 zone units
Valeriote Assay, Differential in Zone Units [11]: 260 zone units

CC[C@]1(O)C[C@@H]2CN(CCc3c([nH]c4ccccc34)[C@@](C(=O)OC)(c3cc4c(cc3OC)N(C)[C@H]3[C@@](O)(C(=O)OC)[C@H](OC(C)=O)[C@]5(CC)C=CCN6CC[C@]43[C@@H]65)C2)C1 [Vinblastine]
effect on taxol-stabilized microtubules ([12]; A-10 cells pretreated 3 hours with 10 μM taxol, then 100 nM vinblastine or 10 nM cryptophycin compound, 24 hours): pretreatment with taxol prevented microtubule depolymerization
effect on vimentin intermediate filaments ([12]; A-10 cells, 24 hours, 100 nM vinblastine or 10 nM cryptophycin compounds): vimentin intermediate filaments collapsed
effect on microtubules ([12]; A-10 cells, 24 hours, 2 μM cytochalasin B, 100 nM vinblastine or 10 nM cryptophycin compounds): marked depletion of microtubles
reversibility of microtubule depolymerization after removal of compound ([12]; A-10 cells, 24 hr with 100 nM vinblastine or 10 nM cryptophycins, then drug-free medium 1 hour or 24 hours): complete morphological recovery by 24 hour
increase in cell number in the 24 hours following removal of the drug (SKOV3 cells): approximately 3 fold
